Data published in US11208422B2, “Substituted bridged diazepane derivatives and use thereof as TASK-1 and TASK-3 inhibitors” (Bayer Pharma Aktiengesellschaft, priority 2017, dated 2021).

Legend:
Assay type in all cases: cell-based
[1] = molecular target: T1, recombinant TASK-3 (Homo sapiens (Human), UniProt Q9NPC2); assay: Inhibition of recombinant TASK-3 in stably transfected CHO cells (KCl-induced depolarization, voltage-sensitive dye, FLIPR); conditions: depolarization induced by 40 mM potassium chloride, some mean values from multiple determinations
Method: (§1) The compounds of the invention were tested here with administration of 40 mM of potassium chloride in the presence of a voltage-sensitive dye using the method described in detail in the following references [Whiteaker et al., Validation of FLIPR membrane potential dye for high-throughput screening of potassium channel modulators, J. Biomol. Screen. 6 (5), 305-312 (2001); Molecular Devices FLIPR Application Note: Measuring membrane potential using the FLIPR® membrane potential assay kit on Fluorometric Imaging Plate Reader (FLIPR®) systems, http://www.moleculardevices.com/reagents-supplies/assay-kits/ion-channels/flipr-membrane-potential-assay-kits]. The activity of the test substances was determined as their ability to inhibit a depolarization induced in the recombinant cells by 40 mM potassium chloride. The concentration which can block half of this depolarization is referred to as IC50.

[2] = molecular target: T1, recombinant TASK-3; assay: Two-electrode voltage clamp analysis of human TASK-3 channel expressed in Xenopus laevis oocytes; conditions: TASK-3 IC50, human TASK-3 in Xenopus laevis oocytes
Method: (§2) Xenopus laevis oocytes were selected as described elsewhere by way of illustration [Decher et al., FEBS Lett. 492, 84-89 (2001)]. […] For the electrophysiological analysis of the channel proteins expressed in the oocytes, the two-electrode voltage clamp technique [Stühmer, Methods Enzymol. 207, 319-339 (1992)] was used. The measurements were conducted as described [Decher et al., FEBS Lett. 492, 84-89 (2001)] at room temperature (21-22° C.) using a Turbo TEC 10CD amplifier (NPI), recorded at 2 kHz and filtered with 0.4 kHz. Substance administration was performed using a gravitation-driven perfusion system. Here, the oocyte is located in a measuring chamber and exposed to the solvent stream of 10 ml/min. The level in the measuring chamber is monitored and regulated by sucking off the solution using a peristaltic pump.

[3] = molecular target: T2, recombinant TASK-1 (Homo sapiens (Human), UniProt O14649); assay: Two-electrode voltage clamp analysis of human TASK-1 channel expressed in Xenopus laevis oocytes; conditions: TASK-1 IC50, human TASK-1 in Xenopus laevis oocytes
Method: as §2

[4] = molecular target: T2, recombinant TASK-1; assay: Inhibition of recombinant TASK-1 in stably transfected CHO cells (KCl-induced depolarization, voltage-sensitive dye, FLIPR); conditions: depolarization induced by 40 mM potassium chloride, some mean values from multiple determinations
Method: as §1

T1 sequence (Q9NPC2 whole entry): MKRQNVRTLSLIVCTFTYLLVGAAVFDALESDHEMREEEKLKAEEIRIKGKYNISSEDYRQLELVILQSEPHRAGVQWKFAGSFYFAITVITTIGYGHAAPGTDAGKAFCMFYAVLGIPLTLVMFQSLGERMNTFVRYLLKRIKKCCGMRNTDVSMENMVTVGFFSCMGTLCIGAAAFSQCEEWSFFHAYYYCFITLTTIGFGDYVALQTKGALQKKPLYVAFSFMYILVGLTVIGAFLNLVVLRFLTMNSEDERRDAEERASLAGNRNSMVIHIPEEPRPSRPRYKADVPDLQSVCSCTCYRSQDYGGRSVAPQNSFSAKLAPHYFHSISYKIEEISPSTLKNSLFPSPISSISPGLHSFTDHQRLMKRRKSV
T2 sequence (O14649 whole entry): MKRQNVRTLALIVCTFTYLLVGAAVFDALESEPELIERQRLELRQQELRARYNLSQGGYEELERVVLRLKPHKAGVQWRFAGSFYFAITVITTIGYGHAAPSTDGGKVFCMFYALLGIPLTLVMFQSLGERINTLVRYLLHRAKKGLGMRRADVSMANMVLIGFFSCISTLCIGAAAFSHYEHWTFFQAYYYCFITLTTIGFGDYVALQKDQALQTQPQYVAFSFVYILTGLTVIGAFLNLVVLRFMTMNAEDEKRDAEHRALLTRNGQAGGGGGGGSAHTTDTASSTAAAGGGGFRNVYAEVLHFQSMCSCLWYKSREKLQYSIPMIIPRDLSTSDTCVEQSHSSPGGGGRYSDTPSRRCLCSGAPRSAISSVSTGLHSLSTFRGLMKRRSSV

SMILES | IC50 [1] [nM] | IC50 [2] [nM] | IC50 [3] [nM] | IC50 [4] [nM]
COc1ccc(F)c(C(=O)N2C3CCN(Cc4c(-c5ccc(Cl)cc5)nc5ccccn45)CC2COC3)n1 (single isomer, unassigned) [Example 11] | 1.1 | 4.8 ± 0.4 | 11.4 ± 2.2 | 113
COc1ccc(F)c(C(=O)N2C3CCN(Cc4c(-c5ccc(Cl)cc5)nc5ccccn45)CC2COC3)n1 (single isomer, unassigned) [Example 12] | 2.5 | 13 ± 0.9 | 17.6 ± 2.2 | 60.5
COc1ccc(F)c(C(=O)N2C3CCC2CN(Cc2c(-c4ccc(Cl)cn4)nc4ccccn24)CC3)n1 (single isomer, unassigned) [Example 15, [3-{[2-(5-Chloropyridin-2-yl)imidazo[1,2-a]pyridin-3-yl]methyl}-3,9-diazabicyclo[4.2.1]non-9-yl](3-fluoro-6-methoxypyridin-2-yl)methanone] | 7.3 | 15.5 ± 1.5 | 7.54 ± 1.4 | 250
O=C(c1cccc(OC(F)F)n1)N1CCC2CCC1CN2Cc1c(-c2ccc(Cl)cc2)nc2ncccn12 (stereo not drawn) [Example 67] | 370 |  |  | 3400
O=C(c1cccc(OC(F)F)n1)N1CCC2CCC1CN2Cc1c(-c2ccc(Cl)cc2)nc2ncccn12 (stereo not drawn) [Example 68] | 31 |  |  | 230
COc1ccc(F)c(C(=O)N2C3CCC2CN(Cc2c(-c4ccc(C(C)C)cc4)nc4ncccn24)CC3)n1 (stereo not drawn) [Example 102] | 36 |  |  | 170
COc1ccc(F)c(C(=O)N2C3CCC2CN(Cc2c(-c4ccc(C(C)C)cc4)nc4ncccn24)CC3)n1 (stereo not drawn) [Example 103] | 200 |  |  | 1400
COc1cccc(C(=O)N2C3CCC2CN(Cc2c(-c4ccc(C(C)C)cc4)nc4ncccn24)CC3)n1 (stereo not drawn) [Example 104] | 31 |  |  | 600
COc1cccc(C(=O)N2C3CCC2CN(Cc2c(-c4ccc(C(C)C)cc4)nc4ncccn24)CC3)n1 (stereo not drawn) [Example 105] | 370 |  |  | 3700
